{"source": "patent US20030203373A1", "about": "(priority 2002, published 2003)", "system": "normotensive Wister rats", "test": "Bradykinin-potentiating effect on blood pressure in anaesthetized normotensive rats", "format": "in vivo, rat", "description": "In the in vivo experiments with normotensive rats the animals were previously anaesthetized and after blood pressure stabilization treated with a constant amount of bradykinin. Subsequently, either Captopril or human BPP were administered, again followed by a constant amount of bradykinin. Afterwards the maximum blood pressure drop was determined and, on the basis of bradykinin as a factor 1, the potentiating factor was determined. In the same way, the systolic and diastolic blood pressure, the percentage middle pressure decrease and the time required to come back to the baseline values were measured (see tables 4a to 4j). A detailed experimental description is given below.\n2. Measurement of Blood Pressure in Normotensive and Hypertensive Rats\nThe trials were conducted on female anaesthetized normotensive Wister rats with weight ranging from 210 to 240 g.\nThe peptide pANP48-57 used for the in vivo assays was synthesized by Biosynthan (Berlin) with a HPLC-determined purity of 98%.\nAnaesthetizing was performed by i.p.-administration of 1 ml/kg Ketavit (100 mg/ml)+Rampun (2%).\nIn order to conduct the blood pressure measurement, a polyethylene catheter was introduced into the Aorta femuralis and connected with a pressure transducer. A Statham-P23A pressure-transducer was linked to a Gould Polygraph and used to determine the arterial blood pressure. A Hg-manometer was used to calibrate the system.\nAll substances were dissolved and diluted in a physiological sodium chloride solution and introduced into the Vena jugularis via a catheter.\nAfter stabilization of blood pressure (after about 10 minutes) […] body weight of a 2,5 μM bradykinin-solution (Sigma) was administered.\nThe middle pressure was determined from the measured diastolic (pd) and systolic (ps) blood pressure by using the following formula: pm=(ps−Pd)×0,42+pd.", "key": {"[1]": {"details": "S605 1 × 10^−3 M + Bradykinin 2.5 × 10^−6 M"}, "[2]": {"details": "S605 1 × 10^−3 M + Bradykinin 2.5 × 10^−6 M, individual female rat"}, "[3]": {"details": "S605 1.5 × 10^−3 M + Bradykinin 2.5 × 10^−6 M"}, "[4]": {"details": "S605 1.5 × 10^−3 M + Bradykinin 2.5 × 10^−6 M, Rat (female) 216 g, Table 4j"}, "[5]": {"details": "S605 1.5 × 10^−3 M + Bradykinin 2.5 × 10^−6 M, individual female rat"}, "[6]": {"details": "S605 1.5 × 10^−4 M + Bradykinin 2.5 × 10^−6 M"}, "[7]": {"details": "S605 1.5 × 10^−4 M + Bradykinin 2.5 × 10^−6 M, individual female rat"}, "[8]": {"details": "S605 5 × 10^−3 M + Bradykinin 2.5 × 10^−6 M"}, "[9]": {"details": "S605 5 × 10^−3 M + Bradykinin 2.5 × 10^−6 M, Rat (female) 211 g, Table 4i"}, "[10]": {"details": "S605 5 × 10^−3 M + Bradykinin 2.5 × 10^−6 M, individual female rat"}}, "note": "Where “and” joins values, the source holds several entries; their conditions need not be identical. Identical values can stand only once. Entries after “also recorded” stand apart in the source; their conditions may differ.", "data": [{"smiles": "CC(C)C[C@H](NC(=O)[C@H](C)N)C(=O)N[C@@H](CO)C(=O)N1CCC[C@H]1C(=O)N[C@@H](CC(C)C)C(=O)N1CCC[C@H]1C(=O)N[C@@H](CCC(=O)O)C(=O)N[C@H](C(=O)N1CCC[C@H]1C(=O)N1CCC[C@H]1C(=O)O)C(C)C", "note": "[Peptide S545]", "values": [{"measurement": "maximal drop of blood pressure", "setting": "[1]", "result": 48.5, "unit": "%"}, {"measurement": "potentiating factor (Bradykinin = 1)", "setting": "[1]", "result": 1.49}, {"measurement": "Blood pressure minimal, PM (middle pressure) = (Ps − Pd) × 0.42 + Pd", "setting": "[2]", "result": 39, "unit": "mg Hg"}, {"measurement": "Blood pressure minimal, diastolic", "setting": "[2]", "result": 28, "unit": "mg Hg"}, {"measurement": "Blood pressure minimal, systolic", "setting": "[2]", "result": 55, "unit": "mg Hg"}, {"measurement": "time to reach the baseline value", "setting": "[2]", "result": "time to reach the baseline value (t = 31 s)"}, {"measurement": "ΔP (middle pressure drop)", "setting": "[2]", "result": 37, "unit": "mg Hg"}, {"measurement": "ΔP (middle pressure drop), percentage", "setting": "[2]", "result": 48.5, "unit": "%"}, {"measurement": "maximal drop of blood pressure", "setting": "[3]", "result": "50.5% ± 5.2"}, {"measurement": "potentiating factor (Bradykinin = 1)", "setting": "[3]", "result": 1.61}, {"measurement": "Blood pressure minimal, PM (middle pressure) = (Ps − Pd) × 0.42 + Pd", "setting": "[4]", "result": 39, "unit": "mg Hg"}, {"measurement": "Blood pressure minimal, diastolic", "setting": "[4]", "result": 28, "unit": "mg Hg"}, {"measurement": "Blood pressure minimal, systolic", "setting": "[4]", "result": 55, "unit": "mg Hg"}, {"measurement": "following short overreaction at maximum (systolic/diastolic)", "setting": "[4]", "result": "following short overreaction at maximum of 106/80"}, {"measurement": "time to reach the baseline value", "setting": "[4]", "result": "time to reach the baseline value (t = 20 s)"}, {"measurement": "ΔP (middle pressure drop)", "setting": "[4]", "result": 43, "unit": "mg Hg"}, {"measurement": "ΔP (middle pressure drop), percentage", "setting": "[4]", "result": 52.4, "unit": "%"}, {"measurement": "Blood pressure minimal, PM (middle pressure) = (Ps − Pd) × 0.42 + Pd", "setting": "[5]", "result": "40 mg Hg and 34 mg Hg"}, {"measurement": "Blood pressure minimal, diastolic", "setting": "[5]", "result": "34 mg Hg and 26 mg Hg"}, {"measurement": "Blood pressure minimal, systolic", "setting": "[5]", "result": "49 mg Hg and 45 mg Hg"}, {"measurement": "time to reach the baseline value", "setting": "[5]", "result": "time to reach the baseline value (t = 46 s); also recorded: time to reach the baseline value (t = 57 s)"}, {"measurement": "ΔP (middle pressure drop)", "setting": "[5]", "result": "32 mg Hg and 41 mg Hg"}, {"measurement": "ΔP (middle pressure drop), percentage", "setting": "[5]", "result": "44.6% and 54.4%"}, {"measurement": "maximal drop of blood pressure", "setting": "[6]", "result": "38.9% ± 8.3"}, {"measurement": "potentiating factor (Bradykinin = 1)", "setting": "[6]", "result": 1.24}, {"measurement": "Blood pressure minimal, PM (middle pressure) = (Ps − Pd) × 0.42 + Pd", "setting": "[7]", "result": "48 mg Hg and 34 mg Hg and 33 mg Hg"}, {"measurement": "Blood pressure minimal, diastolic", "setting": "[7]", "result": "40 mg Hg and 26 mg Hg and 28 mg Hg"}, {"measurement": "Blood pressure minimal, systolic", "setting": "[7]", "result": "60 mg Hg and 46 mg Hg and 40 mg Hg"}, {"measurement": "time to reach the baseline value", "setting": "[7]", "result": "time to reach the baseline value (t = 26 s); also recorded: time to reach the baseline value (t = 36 s); also recorded: time to reach the baseline value (t = 23 s)"}, {"measurement": "ΔP (middle pressure drop)", "setting": "[7]", "result": "22 mg Hg and 32 mg Hg and 20 mg Hg"}, {"measurement": "ΔP (middle pressure drop), percentage", "setting": "[7]", "result": "31.4% and 47.9% and 37.4%"}, {"measurement": "maximal drop of blood pressure", "setting": "[8]", "result": "63.8% ± 3.6"}, {"measurement": "potentiating factor (Bradykinin = 1)", "setting": "[8]", "result": 2.04}, {"measurement": "Blood pressure minimal, PM (middle pressure) = (Ps − Pd) × 0.42 + Pd", "setting": "[9]", "result": 44, "unit": "mg Hg"}, {"measurement": "Blood pressure minimal, diastolic", "setting": "[9]", "result": 35, "unit": "mg Hg"}, {"measurement": "Blood pressure minimal, systolic", "setting": "[9]", "result": 56, "unit": "mg Hg"}, {"measurement": "following short overreaction at maximum (systolic/diastolic)", "setting": "[9]", "result": "following short overreaction at maximum of 141/108"}, {"measurement": "time to reach the baseline value", "setting": "[9]", "result": "time to reach the baseline value (t = 44 s)"}, {"measurement": "ΔP (middle pressure drop)", "setting": "[9]", "result": 70, "unit": "mg Hg"}, {"measurement": "ΔP (middle pressure drop), percentage", "setting": "[9]", "result": 61.4, "unit": "%"}, {"measurement": "following short overreaction at maximum of (systolic/diastolic blood pressure)", "setting": "S605 5 × 10^−3 M + Bradykinin 2.5 × 10^−6 M, after return to baseline", "result": "following short overreaction at maximum of 112/84; also recorded: following short overreaction at maximum of 154/112"}, {"measurement": "Blood pressure minimal, PM (middle pressure) = (Ps − Pd) × 0.42 + Pd", "setting": "[10]", "result": "24 mg Hg and 40 mg Hg"}, {"measurement": "Blood pressure minimal, diastolic", "setting": "[10]", "result": "16 mg Hg and 32 mg Hg"}, {"measurement": "Blood pressure minimal, systolic", "setting": "[10]", "result": "36 mg Hg and 52 mg Hg"}, {"measurement": "time to reach the baseline value", "setting": "[10]", "result": "time to reach the baseline value (t = 36 s); also recorded: time to reach the baseline value (t = 87 s)"}, {"measurement": "ΔP (middle pressure drop)", "setting": "[10]", "result": "52 mg Hg and 66 mg Hg"}, {"measurement": "ΔP (middle pressure drop), percentage", "setting": "[10]", "result": "68% and 62.1%"}, {"measurement": "bradykinin-potentiating effect (short-time decrease of blood pressure induced by bradykinin)", "setting": "normotensive rats, result in words", "result": "concentration dependent bradykinin-potentiating"}, {"measurement": "fold higher molecular concentration in comparison to Captopril required for the bradykinin-potentiating effect in vivo", "setting": "relative to Captopril", "result": 10, "unit": "fold"}]}]}
